This is an account of results in patent US12297194B2, “N2-phenylpyrimidine-2,4-diamine compounds, and preparation methods and methods of use thereof” (BRIDGE BIOTHERAPEUTICS, INC., priority 2021, dated 2025).

Holding throughout (assay type): cell-based, murine
Assay [1] addresses Ba/F3 EGFR Wild-type (Homo sapiens, UniProt P00533). As to the kind of experiment: CellTiter-Glo cell viability, Ba/F3 EGFR wild-type cells. The settings on record: 72 hours, read-out: Ba/F3 EGFR mutant cell (IC50, nM) WT. The procedure, abridged:
(§1)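 Ba/F3 cells expressing wild-type or mutant EGFR were seeded at 2500 cells/well, treated after 24 hours with compound at 0–2000 nM (ten points), and incubated 72 hours at 37° C. Viability was read as cellular ATP by CellTiter-Glo luminescence, and IC50 values were fitted from the dose-response.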
In general terms: In ATP-based viability assays light output follows the ATP content of the culture.

Assay [2] deals with Ba/F3 EGFR Del19/C797S mutants (Homo sapiens, UniProt P00533, C797S, cells depend on it, form not given). As to the kind of experiment: CellTiter-Glo cell viability, Ba/F3 EGFR Del19/C797S cells. The settings on record: 72 hours, read-out: Ba/F3 EGFR mutant cell (IC50, nM) D/C. The procedure, abridged: as §1
Ba/F3 EGFR Del19/C797S mutants, sequence (P00533 with tags, fused parts or gaps DEL746-750/C797S, form open): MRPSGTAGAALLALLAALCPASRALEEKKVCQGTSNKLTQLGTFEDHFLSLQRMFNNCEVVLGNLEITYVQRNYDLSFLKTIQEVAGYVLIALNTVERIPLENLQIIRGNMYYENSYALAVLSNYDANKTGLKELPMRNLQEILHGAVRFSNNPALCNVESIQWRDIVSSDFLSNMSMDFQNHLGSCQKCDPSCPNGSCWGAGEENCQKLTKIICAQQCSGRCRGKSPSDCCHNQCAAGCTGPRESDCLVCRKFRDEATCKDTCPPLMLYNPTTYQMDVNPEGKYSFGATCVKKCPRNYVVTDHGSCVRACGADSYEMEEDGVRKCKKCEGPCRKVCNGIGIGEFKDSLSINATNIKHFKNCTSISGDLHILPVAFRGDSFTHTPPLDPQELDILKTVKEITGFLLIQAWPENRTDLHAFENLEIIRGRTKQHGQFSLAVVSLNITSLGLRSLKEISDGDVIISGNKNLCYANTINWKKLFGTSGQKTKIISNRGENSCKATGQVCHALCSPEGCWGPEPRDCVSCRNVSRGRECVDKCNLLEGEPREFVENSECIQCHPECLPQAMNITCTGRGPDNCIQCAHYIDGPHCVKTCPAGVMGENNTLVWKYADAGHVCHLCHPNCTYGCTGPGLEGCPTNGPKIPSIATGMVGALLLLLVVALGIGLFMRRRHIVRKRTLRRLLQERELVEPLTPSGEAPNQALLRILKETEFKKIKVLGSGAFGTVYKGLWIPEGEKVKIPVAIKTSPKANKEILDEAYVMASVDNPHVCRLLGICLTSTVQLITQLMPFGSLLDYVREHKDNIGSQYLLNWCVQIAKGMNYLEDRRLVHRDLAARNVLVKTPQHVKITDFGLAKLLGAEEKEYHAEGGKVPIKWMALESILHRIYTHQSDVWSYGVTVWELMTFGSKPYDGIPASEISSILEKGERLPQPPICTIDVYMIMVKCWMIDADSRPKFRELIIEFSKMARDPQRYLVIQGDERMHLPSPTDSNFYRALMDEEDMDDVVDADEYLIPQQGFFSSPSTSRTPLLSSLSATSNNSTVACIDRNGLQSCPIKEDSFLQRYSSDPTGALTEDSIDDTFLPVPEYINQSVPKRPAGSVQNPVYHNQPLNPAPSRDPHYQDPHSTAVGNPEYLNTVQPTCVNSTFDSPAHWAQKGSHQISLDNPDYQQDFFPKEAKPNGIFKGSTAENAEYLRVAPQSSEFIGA
The target of assay [3] is Ba/F3 EGFR Del19/T790M mutants (Homo sapiens, UniProt P00533, T790M, cells depend on it, form not given). As to the kind of experiment: CellTiter-Glo cell viability, Ba/F3 EGFR Del19/T790M cells. The settings on record: 72 hours, read-out: Ba/F3 EGFR mutant cell (IC50, nM) D/T. The procedure, abridged:
as §1

Assay [4] addresses Ba/F3 EGFR L858R/T790M/C797S mutants (Homo sapiens, UniProt P00533, T790M/C797S/L858R, cells depend on it). As to the kind of experiment: CellTiter-Glo cell viability, Ba/F3 EGFR L858R/T790M/C797S cells. The settings on record: 72 hours, read-out: Ba/F3 EGFR mutant cell (IC50, nM) L/T/C. The procedure, abridged: as §1
Assay [5] concerns the target Ba/F3 EGFR L858R/C797S mutants (Homo sapiens, UniProt P00533, C797S/L858R, cells depend on it). As to the kind of experiment: CellTiter-Glo cell viability, Ba/F3 EGFR L858R/C797S cells. The following applies: 72 hours, read-out: Ba/F3 EGFR mutant cell (IC50, nM) L/C. The procedure, abridged: as §1
In assay [6] the target is Ba/F3 EGFR Del19/T790M/C797S mutants (Homo sapiens, UniProt P00533, T790M/C797S, cells depend on it, form not given). As to the kind of experiment: CellTiter-Glo cell viability, Ba/F3 EGFR Del19/T790M/C797S cells. The settings on record: 72 hours, read-out: Ba/F3 EGFR mutant cell (IC50, nM) D/T/C. In a few lines: as §1

Each structure is given as a SMILES string.

Ba/F3 EGFR L858R/T790M/C797S mutants, sequence (P00533 whole entry T790M/C797S/L858R): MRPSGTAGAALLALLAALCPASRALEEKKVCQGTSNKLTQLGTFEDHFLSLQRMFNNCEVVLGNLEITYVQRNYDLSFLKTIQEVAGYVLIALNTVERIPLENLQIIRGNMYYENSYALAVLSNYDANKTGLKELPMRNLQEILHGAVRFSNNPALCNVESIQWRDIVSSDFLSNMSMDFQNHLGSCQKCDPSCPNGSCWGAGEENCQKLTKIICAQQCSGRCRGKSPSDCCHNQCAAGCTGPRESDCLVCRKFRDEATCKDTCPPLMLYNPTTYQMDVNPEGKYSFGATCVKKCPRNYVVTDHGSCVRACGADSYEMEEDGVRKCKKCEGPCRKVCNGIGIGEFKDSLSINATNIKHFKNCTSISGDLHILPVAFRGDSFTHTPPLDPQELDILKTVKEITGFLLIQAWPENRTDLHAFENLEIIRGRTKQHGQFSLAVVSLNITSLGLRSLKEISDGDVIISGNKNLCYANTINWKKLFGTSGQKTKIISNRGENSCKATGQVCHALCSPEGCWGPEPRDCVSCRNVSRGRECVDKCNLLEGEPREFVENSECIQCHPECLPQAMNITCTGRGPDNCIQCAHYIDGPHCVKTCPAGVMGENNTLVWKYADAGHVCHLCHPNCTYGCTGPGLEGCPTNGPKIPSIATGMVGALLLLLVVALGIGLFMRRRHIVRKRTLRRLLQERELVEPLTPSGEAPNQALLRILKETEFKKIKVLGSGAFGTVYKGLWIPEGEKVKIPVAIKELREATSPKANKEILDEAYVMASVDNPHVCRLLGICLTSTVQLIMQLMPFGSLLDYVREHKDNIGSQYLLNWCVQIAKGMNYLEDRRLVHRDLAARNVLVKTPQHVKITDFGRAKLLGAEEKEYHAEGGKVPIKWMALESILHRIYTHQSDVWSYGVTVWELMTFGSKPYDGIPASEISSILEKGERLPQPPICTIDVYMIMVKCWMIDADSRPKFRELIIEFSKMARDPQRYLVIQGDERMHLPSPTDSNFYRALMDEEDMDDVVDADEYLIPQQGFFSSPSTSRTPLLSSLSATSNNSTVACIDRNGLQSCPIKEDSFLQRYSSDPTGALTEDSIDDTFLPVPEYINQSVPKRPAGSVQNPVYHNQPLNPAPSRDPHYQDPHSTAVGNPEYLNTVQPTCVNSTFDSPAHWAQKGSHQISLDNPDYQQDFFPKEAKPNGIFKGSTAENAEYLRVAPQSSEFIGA
Ba/F3 EGFR Wild-type, sequence (P00533 whole entry, change not shown): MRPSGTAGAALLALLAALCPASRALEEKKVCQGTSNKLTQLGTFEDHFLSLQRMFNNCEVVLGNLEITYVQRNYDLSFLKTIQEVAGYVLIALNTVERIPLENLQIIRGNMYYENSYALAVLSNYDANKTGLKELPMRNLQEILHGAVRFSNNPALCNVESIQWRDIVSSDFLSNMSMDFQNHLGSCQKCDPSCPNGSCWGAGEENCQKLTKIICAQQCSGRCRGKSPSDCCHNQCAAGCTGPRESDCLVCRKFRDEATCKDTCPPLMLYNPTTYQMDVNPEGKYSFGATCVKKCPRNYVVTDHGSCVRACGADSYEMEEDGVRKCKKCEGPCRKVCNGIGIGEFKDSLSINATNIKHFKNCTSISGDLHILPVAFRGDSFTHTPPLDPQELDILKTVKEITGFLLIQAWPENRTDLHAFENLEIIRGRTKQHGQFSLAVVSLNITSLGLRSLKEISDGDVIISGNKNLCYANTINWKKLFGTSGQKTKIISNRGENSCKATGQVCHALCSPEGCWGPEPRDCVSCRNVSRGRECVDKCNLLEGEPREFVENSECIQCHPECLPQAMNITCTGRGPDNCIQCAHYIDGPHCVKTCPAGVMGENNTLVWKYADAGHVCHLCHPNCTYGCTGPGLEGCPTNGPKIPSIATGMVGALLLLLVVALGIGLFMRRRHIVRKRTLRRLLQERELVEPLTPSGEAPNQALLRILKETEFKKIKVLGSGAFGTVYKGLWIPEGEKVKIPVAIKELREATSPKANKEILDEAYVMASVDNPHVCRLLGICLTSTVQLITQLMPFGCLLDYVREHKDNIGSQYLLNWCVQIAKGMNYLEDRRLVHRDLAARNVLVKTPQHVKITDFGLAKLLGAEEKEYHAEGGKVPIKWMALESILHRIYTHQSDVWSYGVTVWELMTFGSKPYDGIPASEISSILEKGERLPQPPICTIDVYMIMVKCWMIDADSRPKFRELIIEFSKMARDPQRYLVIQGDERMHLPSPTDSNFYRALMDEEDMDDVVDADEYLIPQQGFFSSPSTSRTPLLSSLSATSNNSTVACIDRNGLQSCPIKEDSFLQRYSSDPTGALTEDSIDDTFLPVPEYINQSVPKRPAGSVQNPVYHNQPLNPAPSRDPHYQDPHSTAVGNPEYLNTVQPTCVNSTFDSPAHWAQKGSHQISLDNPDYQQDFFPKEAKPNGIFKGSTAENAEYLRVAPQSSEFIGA
Ba/F3 EGFR L858R/C797S mutants, sequence (P00533 whole entry C797S/L858R): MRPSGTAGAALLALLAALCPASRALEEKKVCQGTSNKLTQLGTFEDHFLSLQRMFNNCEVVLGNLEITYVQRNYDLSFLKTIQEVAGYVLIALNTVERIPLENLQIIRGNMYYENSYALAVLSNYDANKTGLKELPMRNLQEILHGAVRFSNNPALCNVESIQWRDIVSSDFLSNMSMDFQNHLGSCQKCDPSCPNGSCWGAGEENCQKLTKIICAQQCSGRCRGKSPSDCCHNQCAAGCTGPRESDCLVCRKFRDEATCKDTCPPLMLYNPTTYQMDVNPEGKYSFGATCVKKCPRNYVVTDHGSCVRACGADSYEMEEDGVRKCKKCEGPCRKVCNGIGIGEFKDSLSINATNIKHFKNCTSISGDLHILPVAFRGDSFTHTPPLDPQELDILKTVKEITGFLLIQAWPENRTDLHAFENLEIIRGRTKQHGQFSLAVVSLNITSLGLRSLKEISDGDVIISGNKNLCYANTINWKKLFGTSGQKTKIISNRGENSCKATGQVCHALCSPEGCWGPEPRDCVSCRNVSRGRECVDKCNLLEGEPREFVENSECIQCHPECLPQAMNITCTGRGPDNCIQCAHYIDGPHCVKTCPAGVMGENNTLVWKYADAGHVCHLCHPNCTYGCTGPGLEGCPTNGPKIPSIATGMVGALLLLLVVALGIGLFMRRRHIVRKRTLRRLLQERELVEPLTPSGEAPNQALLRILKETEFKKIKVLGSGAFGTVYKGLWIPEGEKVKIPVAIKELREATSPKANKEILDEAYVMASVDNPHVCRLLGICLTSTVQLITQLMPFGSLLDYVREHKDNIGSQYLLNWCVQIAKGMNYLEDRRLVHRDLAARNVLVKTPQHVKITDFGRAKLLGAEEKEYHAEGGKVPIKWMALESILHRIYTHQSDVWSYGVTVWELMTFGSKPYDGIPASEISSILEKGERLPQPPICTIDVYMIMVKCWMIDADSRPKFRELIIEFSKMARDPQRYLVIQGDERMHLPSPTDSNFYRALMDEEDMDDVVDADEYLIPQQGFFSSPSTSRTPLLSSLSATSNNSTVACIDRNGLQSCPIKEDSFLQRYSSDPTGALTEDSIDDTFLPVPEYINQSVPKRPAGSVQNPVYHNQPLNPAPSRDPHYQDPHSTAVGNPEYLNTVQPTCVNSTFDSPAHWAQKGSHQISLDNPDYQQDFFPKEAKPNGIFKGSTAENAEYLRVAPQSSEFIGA

Consider `COc1cc(OC2CNC2)ccc1Nc1ncc(Cl)c(Nc2ccc3nccnc3c2NS(C)(=O)=O)n1` [Example D6, N-(6-((2-((4-(azetidin-3-yloxy)-2-methoxyphenyl)amino)-5-chloropyrimidin-4-yl)amino)quinoxalin-5-yl)methanesulfonamide], for which the GI50 in assay [1] is above 2000 nM; in assay [2], 706 nM; in assay [3] it was 800 nM; in assay [4], 1080 nM; in assay [5], 1130 nM; in assay [6] it was 592 nM.

For `COc1cc(N2CCN([C@@H]3CCN(C)C[C@@H]3F)CC2)ccc1Nc1ncc(Cl)c(Nc2ccc3nccnc3c2NS(C)(=O)=O)n1` [Example A36, N-(6-((5-chloro-2-((4-(4-((3S,4R)-3-fluoro-1-methylpiperidin-4-yl)piperazin-1-yl)-2-methoxyphenyl)amino)pyrimidin-4-yl)amino)quinoxalin-5-yl)methane sulfonamide], the GI50 is 657 nM in assay [1]; 111 nM in assay [2]; 73 nM in assay [3]; 485 nM in assay [4]; 267 nM in assay [5]; 241 nM in assay [6].

Turning to `CCc1cc(Nc2ncc(Cl)c(Nc3cccc(OC)c3NS(C)(=O)=O)n2)c(OC)cc1N1CCC(N2CCOCC2)CC1` [Example C20, N-(2-((5-chloro-2-((5-ethyl-2-methoxy-4-(4-morpholinopiperidin-1-yl)phenyl)amino)pyrimidin-4-yl)amino)-6-methoxyphenyl)methanesulfonamide], the GI50 in assay [1] amounted to 1160 nM; in assay [2], 22 nM; in assay [3], 21 nM; in assay [4] it was 148 nM; in assay [5] it was 87 nM; in assay [6] it was 21 nM.

Turning to `CCc1cc(Nc2ncc(Cl)c(Nc3ccc4nccnc4c3NS(C)(=O)=O)n2)c(OC)cc1N1CCC(N2CCN(C)CC2)CC1` [Example A2, N-(6-((5-chloro-2-((5-ethyl-2-methoxy-4-(4-(4-methylpiperazin-1-yl)piperidin-1-yl)phenyl)amino)pyrimidin-4-yl)amino)quinoxalin-5-yl)methanesulfonamide], the GI50 worked out at 381 nM in assay [1]; 12 nM in assay [2]; 4 nM in assay [3]; 9 nM in assay [4]; 26 nM in assay [5]; 4 nM in assay [6].

With `CCc1cc(Nc2ncc(Cl)c(Nc3ccc(OC)c(OC)c3NS(C)(=O)=O)n2)c(OC)cc1N1CCC(N2CCOCC2)CC1` [Example C18, N-(6-((5-chloro-2-((5-ethyl-2-methoxy-4-(4-morpholinopiperidin-1-yl)phenyl)amino)pyrimidin-4-yl)amino)-2,3-dimethoxyphenyl)methanesulfonamide], the GI50 stood at 835 nM in assay [1]; 55 nM in assay [2]; 39 nM in assay [3]; 194 nM in assay [4]; 215 nM in assay [5]; 54 nM in assay [6].

Consider `CCCc1cc(Nc2ncc(F)c(Nc3ccc4nccnc4c3NS(C)(=O)=O)n2)c(OC)cc1N1CCC(N2CCN(C)CC2)CC1` [Example A32, N-(6-((5-fluoro-2-((2-methoxy-4-(4-(4-methylpiperazin-1-yl)piperidin-1-yl)-5-propylphenyl)amino)pyrimidin-4-yl)amino)quinoxalin-5-yl)methanesulfonamide], for which the GI50 in assay [1] was found to be 603 nM; in assay [2], 11 nM; in assay [3], 27 nM; in assay [4], 229 nM; in assay [5], 51 nM; in assay [6], 91 nM.

Take `CCc1cc(Nc2ncc(Cl)c(Nc3ccc4nccnc4c3N(C)S(C)(=O)=O)n2)c(OC)cc1N1CC2CCC1CN2C(C)C` (stereo not drawn) [Example B28, N—N-(6-((5-chloro-2-((5-ethyl-4-(5-isopropyl-2,5-diazabicyclo[2.2.2]octan-2-yl)-2-methoxyphenyl)amino)pyrimidin-4-yl)amino)quinoxalin-5-yl)-N-methylmethanesulfonamide]: the GI50 in assay [1] was 332 nM; in assay [2] it was 14 nM; in assay [3], 23 nM; in assay [4] it was 50 nM; in assay [5], 26 nM; in assay [6] it was 5 nM.

Regarding `CCc1cc(Nc2ncc(Cl)c(Nc3ccc4nccnc4c3NS(C)(=O)=O)n2)c(OC)cc1N1CCC(N2CCOCC2)CC1` [Example A29, N-(6-((5-chloro-2-((5-ethyl-2-methoxy-4-(4-morpholinopiperidin-1-yl)phenyl)amino)pyrimidin-4-yl)amino)quinoxalin-5-yl)methanesulfonamide], the GI50 was determined as 200 nM in assay [1]; 27 nM in assay [2]; 13 nM in assay [3]; 25 nM in assay [4]; 79 nM in assay [5]; 69 nM in assay [6].

As to `CCCc1cc(Nc2ncc(Br)c(Nc3ccc4nccnc4c3NS(C)(=O)=O)n2)c(OC)cc1N1CCC(N(C)C)CC1` [Example B13, N-(6-((5-bromo-2-((4-(4-(dimethylamino)piperidin-1-yl)-2-methoxy-5-propylphenyl)amino)pyrimidin-4-yl)amino)quinoxalin-5-yl)methanesulfonamide], the GI50 in assay [1] was 468 nM; in assay [2], 41 nM; in assay [3], 13 nM; in assay [4] it was 22 nM; in assay [5], 114 nM; in assay [6] it was 60 nM.

Consider `CCCc1cc(Nc2ncc(Cl)c(Nc3cccc(OC)c3NS(C)(=O)=O)n2)c(OC)cc1N1CCC(N(C)C)CC1` [Example C19, N-(2-((5-chloro-2-((4-(4-(dimethylamino)piperidin-1-yl)-2-methoxy-5-propylphenyl)amino)pyrimidin-4-yl)amino)-6-methoxyphenyl)methanesulfonamide], for which the GI50 is 668 nM in assay [1]; 12 nM in assay [2]; 9 nM in assay [3]; 54 nM in assay [4]; 30 nM in assay [5]; 7 nM in assay [6].

In the case of `COc1cc(N2CCC(N3CCN(C)CC3)CC2)c(C)cc1Nc1ncc(Cl)c(Nc2cccc(OC)c2NS(C)(=O)=O)n1` [Example C24, N-(2-((5-chloro-2-((2-methoxy-5-methyl-4-(4-(4-methylpiperazin-1-yl)piperidin-1-yl)phenyl)amino)pyrimidin-4-yl)amino)-6-methoxyphenyl)methanesulfonamide], the GI50 in assay [1] was 605 nM; in assay [2], 6 nM; in assay [3], 14 nM; in assay [4], 83 nM; in assay [5], 41 nM; in assay [6] it was 7 nM.

Take `COc1ccc(Nc2nc(Nc3cc(C)c(N4CCC(N(C)C)CC4)cc3OC)ncc2Cl)c(NS(C)(=O)=O)c1` [Example C4, N-(2-((5-chloro-2-((4-(4-(dimethylamino)piperidin-1-yl)-2-methoxy-5-methylphenyl)amino)pyrimidin-4-yl)amino)-5-methoxyphenyl)methanesulfonamide]: the GI50 is 263 nM in assay [1]; 31 nM in assay [2]; 30 nM in assay [3]; 38 nM in assay [4]; 91 nM in assay [5]; 132 nM in assay [6].
